{"source": "patent US11471469B2", "about": "(Lennham Pharmaceuticals, Inc., priority 2020, dated 2022)", "biological_target": "T1, Recombinant CYP19 (aromatase) (Homo sapiens, UniProt P11511)", "T1 sequence (P11511 1-503)": "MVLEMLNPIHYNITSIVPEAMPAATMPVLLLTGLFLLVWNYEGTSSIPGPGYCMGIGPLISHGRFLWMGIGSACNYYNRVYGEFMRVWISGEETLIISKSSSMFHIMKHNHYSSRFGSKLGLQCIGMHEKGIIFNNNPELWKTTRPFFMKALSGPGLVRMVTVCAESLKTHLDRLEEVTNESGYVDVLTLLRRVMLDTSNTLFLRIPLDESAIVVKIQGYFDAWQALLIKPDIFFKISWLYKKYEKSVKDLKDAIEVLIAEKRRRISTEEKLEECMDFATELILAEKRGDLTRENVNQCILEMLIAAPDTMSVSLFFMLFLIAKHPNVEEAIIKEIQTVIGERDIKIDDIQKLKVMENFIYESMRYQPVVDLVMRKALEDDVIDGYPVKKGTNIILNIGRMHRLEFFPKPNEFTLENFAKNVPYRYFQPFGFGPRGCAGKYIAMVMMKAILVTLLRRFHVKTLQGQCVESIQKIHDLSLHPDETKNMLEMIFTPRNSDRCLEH", "assay": "Metabolic stability in the presence of recombinant CYP19 (aromatase)", "description": "The incubation conditions used are described in Table 1.\nThe analytical method used is described in Table 2.", "key": {"[1]": {"details": "recombinant human CYP19, compared with testosterone"}}, "data": [{"smiles": "[2H]C([2H])([2H])[C@]12CCC(=O)C=C1CC[C@H]1[C@@H]3CC[C@H](O)[C@@]3(C)CC[C@@H]12", "note": "[Testosterone-19-d3, testosterone-19-d3]", "values": [{"measurement": "half-life (t1/2) in aromatase, times longer than that of non-isotopically enriched testosterone", "setting": "recombinant human CYP19, 0.5 μM, 4 pmol/ml or 2 μM, 10 pmol/ml, NADPH 1 mM, 0-60 min at 37° C.", "value": "4-7 times"}, {"measurement": "clearance by aromatase", "setting": "[1]", "value": "more resistant to clearance by aromatase"}, {"measurement": "metabolic stability in the presence of aromatase", "setting": "[1]", "value": "substantially higher stability than testosterone"}]}]}
